# From PubChem BioAssay (NCI)
#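 Growth conditions: 96-well plates. Treatment: test compound, 48 hours, 5 concentrations. Analysis: linear interpolation between bracketing concentrations; unreached endpoints set to highest concentration. GI50: concentration for 50% inhibition of growth. TGI: concentration producing complete growth inhibition.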
# Tests used:
# Assay in all cases: NCI-60 cell line screen, 48 h
# HS 578T breast = tested on: HS 578T breast
# UACC-62 melanoma = tested on: UACC-62 melanoma
# SF-268 CNS = tested on: SF-268 CNS
# MCF7 breast = tested on: MCF7 breast
# SNB-19 CNS = tested on: SNB-19 CNS
# NCI-H460 lung = tested on: NCI-H460 lung
# DU-145 prostate = tested on: DU-145 prostate
# NCI-H226 lung = tested on: NCI-H226 lung
# SF-539 CNS = tested on: SF-539 CNS
# TK-10 renal = tested on: TK-10 renal
SMILES,GI50 (HS 578T breast) [µM],TGI (HS 578T breast) [µM],GI50 (UACC-62 melanoma) [µM],TGI (UACC-62 melanoma) [µM],GI50 (SF-268 CNS) [µM],TGI (SF-268 CNS) [µM],GI50 (MCF7 breast) [µM],TGI (MCF7 breast) [µM],GI50 (SNB-19 CNS) [µM],TGI (SNB-19 CNS) [µM],GI50 (NCI-H460 lung) [µM],TGI (NCI-H460 lung) [µM],GI50 (DU-145 prostate) [µM],TGI (DU-145 prostate) [µM],GI50 (NCI-H226 lung) [µM],TGI (NCI-H226 lung) [µM],GI50 (SF-539 CNS) [µM],TGI (SF-539 CNS) [µM],GI50 (TK-10 renal) [µM],TGI (TK-10 renal) [µM]
CCOC(=O)c1cc(-c2ccccc2)[nH]c1N/N=C/c1c(Cl)cccc1Cl,0.538,37.2,2.03,> 100,1.14,> 100,0.45,> 100,3.06,> 60.4,0.909,> 61.7,1.59,11.7,1.5,12.4,0.467,3.73,13.2,> 87.8
CCCCCCSc1nc(COC(=O)NC)c(COC(=O)NC)n1C,–,> 100,–,> 100,–,> 100,–,> 100,–,> 100,–,> 100,–,> 100,–,> 100,–,> 100,–,> 100
CNCCN(C)Cc1cn[nH]c1-c1ccc(OC2CC(OCCC3CCOCC3)C2)cc1 (stereo not given),63.1,> 100,39.1,> 100,> 100,> 100,> 81.2,> 100,> 100,> 100,97.9,> 100,> 100,> 100,> 100,> 100,> 100,> 100,> 100,> 100
